Results from patent US10934303B2, “Aryl ethene derivative and pharmaceutical composition containing same as active ingredient” (priority 2016, dated 2021).

Key:
[1] = target: GST-bound ERR alpha LBD (Homo sapiens (Human), UniProt P11474); settings: TR-FRET, PGC1a coactivator; read-out: Binding Assay, IC50 ERRα
Protocol: The arylethene derivative of the present invention was sequentially added to a 384 well plate from a concentration of 10 μM to a final concentration of two-fold dilution. […] After all reagents were added, a reaction was carried out with gentle shaking at 20° C. for 1 hour, and after the reaction, a binding activity was measured by a TR-FRET method.

[2] = tested on: ERRγ; type: cell-based
[3] = target: CYP1A2 (Homo sapiens (Human), UniProt P05177); assay: Cytochrome P450 activity inhibition, CYP1A2; type: in vitro ADME; settings: 10 μM, human liver microsomes, Phenacetin substrate
From the text: (§1) 1) Cytochrome P450 (CYP450) Activity Inhibition Evaluation

[4] = target: CYP2C9 (Homo sapiens (Human), UniProt P11712); assay: Cytochrome P450 activity inhibition, CYP2C9; type: in vitro ADME; settings: 10 μM, human liver microsomes, Diclofenac substrate
From the text: as §1

[5] = target: CYP2C19 (Homo sapiens (Human), UniProt P33261); assay: Cytochrome P450 activity inhibition, CYP2C19; type: in vitro ADME; settings: 10 μM, human liver microsomes, S-mephenytoin substrate
From the text: as §1

[6] = target: CYP2D6 (Homo sapiens (Human), UniProt P10635); assay: Cytochrome P450 activity inhibition, CYP2D6; type: in vitro ADME; settings: 10 μM, human liver microsomes, Dextromethorphan substrate
From the text: as §1

[7] = target: CYP3A4 (Homo sapiens (Human), UniProt P08684); assay: Cytochrome P450 activity inhibition, CYP3A4; type: in vitro ADME; settings: 10 μM, human liver microsomes, Midazolam substrate
From the text: as §1

[8] = in vitro; type: in vitro ADME; settings: PBS pH 7.4, 25° C., 5 hours
[9] = in vivo; type: in vivo; settings: rat
[10] = tested on: CAL-62 anaplastic thyroid cancer cell line; type: cell-based; settings: for each concentration and each time
[11] = tested on: ERRγ mRNA; assay: Quantitative RT-PCR, ERRγ mRNA in CAL62 cells; type: cell-based
Protocol: (§2) Total RNA was separated using Trizol (Invitrogen, Carlsbad, Calif.). Total RNA (2 ug) was reverse-transcribed into cDNA with RevertAid First Strand cDNA Synthesis Kit (Thermo Scientific, Pittsburgh, Pa.). Genes were amplified with a ViiA 7 Real-Time PCR System instrument (Applied Biosystems) using the primer of each target gene and YBR Green PCR master mix (Applied Biosystems, Foster City, Calif.), using a cDNA template. The primer sequence of each target gene is as follows: ERRγ (forward, 5′-CAG ACG CCA GTG GGA GCT A-3′; reverse, 5′-TGGCGAGTCAAGTCCGTTCT-3′), NIS (forward, 5′-TCTAACCGATGCTCACCTCTTCTG-3′; reverse, 5′-AGATGATGGCACCTCCTTGAACC-3′), and acidic ribosomal protein 36B4 (forward, 5′-CCA CGC TGC TGA ACA TGC T-3′; reverse, 5′-TCGAACACCTGCTGGATGAC-3′). Each target gene was normalized using a 36B4 gene.

[12] = tested on: NIS mRNA; assay: Quantitative RT-PCR, NIS mRNA in CAL62 cells; type: cell-based
Protocol: as §2

[13] = tested on: ERRγ protein; assay: Western blot, ERRγ protein in CAL62 cells; type: cell-based; settings: 24 hours
[14] = tested on: NIS protein; assay: Western blot, total and membrane-localized NIS protein in CAL62 cells; type: cell-based
[15] = tested on: CAL62 cells; assay: Clonogenic assay with 131I; type: cell-based; settings: CAL62 cells, single agent
Protocol: The cells were plated in a 6-well plate, and allowed to stand for 24 hours. […] The cells were washed with cold bHBSS, and allowed to stand in a normalized culture medium for a time corresponding to six doublings. Finally, the cells were fixed in a 4% paraformaldehyde (PFA) solution and stained with 0.05% crystal violet.

[16] = tested on: CAL-62/effluc tumor; assay: 125I bio-distribution study in CAL-62/effluc mouse tumor model; type: in vivo, Nude mice (Balb/c nu/nu)
Protocol: (§3) Nude mice (Balb/c nu/nu, female, 6 weeks old) were used, and all animals were normally raised in DMRC center animal laboratory of Kyungbuk National University Hospital in Chilgok. 5×10^6 CAL-62/effluc cells were subcutaneously injected into the left femoral region of the nude mouse to form a tumor. The tumor was extracted, divided into small pieces (20 mg or more), and then intradermally injected into the nude mouse to form a tumor.
After 4 hours of administration, all organs including a parent tumor were extracted, and each organ was weighed. Thereafter, each organ was transferred to a 5 mL test tube, and radioactivity in the organ was measured using a gamma counter.

[17] = tested on: CAL-62/effluc tumor; assay: Tumor growth by bioluminescent imaging in CAL-62/effluc mouse tumor model; type: in vivo, Nude mice (Balb/c nu/nu); settings: 100 mpk, 200 mpk orally daily for 6 days
Protocol: as §3
In order to observe a difference in tumor growth between before administration and after administration, optical imaging (bioluminescent imaging) was performed.
For obtaining an optical image, D-luciferin (3 mg/mouse) was intraperitoneally injected to the mouse. After about 10 minutes of injection, the mouse was anesthetized by inhalation (I-2% isoflurane gas), and then positioned on a IVIS Lumina III (PerkinElmer) imaging bed. The time for obtaining the image was automatically set, and then an optical image was obtained.

[18] = target: hERG channel (Homo sapiens (Human), UniProt Q12809); settings: read-out: hERG IC50; fluorescence polarization assay

CYP2C9, sequence (P11712 whole entry): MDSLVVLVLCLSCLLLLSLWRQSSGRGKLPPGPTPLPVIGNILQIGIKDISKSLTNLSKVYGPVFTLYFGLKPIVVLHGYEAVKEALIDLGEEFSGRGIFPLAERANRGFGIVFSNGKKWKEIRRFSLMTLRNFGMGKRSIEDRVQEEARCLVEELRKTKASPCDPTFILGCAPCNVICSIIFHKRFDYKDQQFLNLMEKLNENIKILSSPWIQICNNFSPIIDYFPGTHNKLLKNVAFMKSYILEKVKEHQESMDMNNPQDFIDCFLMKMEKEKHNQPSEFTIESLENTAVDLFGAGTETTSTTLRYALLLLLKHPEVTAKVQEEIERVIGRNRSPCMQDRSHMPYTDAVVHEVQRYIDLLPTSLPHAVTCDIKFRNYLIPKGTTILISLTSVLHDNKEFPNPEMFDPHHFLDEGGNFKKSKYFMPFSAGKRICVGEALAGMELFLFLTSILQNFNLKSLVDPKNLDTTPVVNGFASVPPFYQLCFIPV
CYP2C19, sequence (P33261 whole entry): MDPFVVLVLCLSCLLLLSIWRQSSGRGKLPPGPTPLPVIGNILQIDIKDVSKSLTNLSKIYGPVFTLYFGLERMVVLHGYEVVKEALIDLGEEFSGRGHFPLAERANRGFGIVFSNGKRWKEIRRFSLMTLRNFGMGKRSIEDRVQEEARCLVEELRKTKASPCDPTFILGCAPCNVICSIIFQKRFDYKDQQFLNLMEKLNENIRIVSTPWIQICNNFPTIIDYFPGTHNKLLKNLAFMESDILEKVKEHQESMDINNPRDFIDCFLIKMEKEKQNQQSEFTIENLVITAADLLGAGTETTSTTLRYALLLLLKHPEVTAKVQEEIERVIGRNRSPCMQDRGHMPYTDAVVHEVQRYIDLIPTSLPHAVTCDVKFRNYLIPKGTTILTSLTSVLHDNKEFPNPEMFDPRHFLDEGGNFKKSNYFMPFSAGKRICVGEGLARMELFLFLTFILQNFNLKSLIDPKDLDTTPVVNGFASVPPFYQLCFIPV
GST-bound ERR alpha LBD, sequence (P11474 193-421): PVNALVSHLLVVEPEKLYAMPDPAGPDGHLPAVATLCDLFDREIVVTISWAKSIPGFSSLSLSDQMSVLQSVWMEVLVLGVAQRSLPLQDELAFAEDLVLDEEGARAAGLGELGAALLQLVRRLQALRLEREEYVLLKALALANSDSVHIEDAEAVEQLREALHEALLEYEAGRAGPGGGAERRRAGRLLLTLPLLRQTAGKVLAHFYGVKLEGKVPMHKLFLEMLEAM
CYP3A4, sequence (P08684 whole entry): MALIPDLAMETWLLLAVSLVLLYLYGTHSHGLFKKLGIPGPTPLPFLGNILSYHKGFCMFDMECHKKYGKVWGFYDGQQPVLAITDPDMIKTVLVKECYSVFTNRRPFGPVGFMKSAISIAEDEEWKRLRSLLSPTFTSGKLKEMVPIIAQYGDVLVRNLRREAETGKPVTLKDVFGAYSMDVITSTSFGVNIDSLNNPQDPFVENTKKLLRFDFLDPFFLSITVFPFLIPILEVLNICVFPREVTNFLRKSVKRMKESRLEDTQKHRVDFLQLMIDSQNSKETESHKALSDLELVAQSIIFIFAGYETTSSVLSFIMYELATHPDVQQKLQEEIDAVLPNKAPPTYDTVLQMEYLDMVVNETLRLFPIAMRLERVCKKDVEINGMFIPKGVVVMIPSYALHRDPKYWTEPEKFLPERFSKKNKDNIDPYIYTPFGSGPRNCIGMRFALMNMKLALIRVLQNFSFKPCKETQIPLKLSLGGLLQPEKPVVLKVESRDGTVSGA
CYP2D6, sequence (P10635 whole entry): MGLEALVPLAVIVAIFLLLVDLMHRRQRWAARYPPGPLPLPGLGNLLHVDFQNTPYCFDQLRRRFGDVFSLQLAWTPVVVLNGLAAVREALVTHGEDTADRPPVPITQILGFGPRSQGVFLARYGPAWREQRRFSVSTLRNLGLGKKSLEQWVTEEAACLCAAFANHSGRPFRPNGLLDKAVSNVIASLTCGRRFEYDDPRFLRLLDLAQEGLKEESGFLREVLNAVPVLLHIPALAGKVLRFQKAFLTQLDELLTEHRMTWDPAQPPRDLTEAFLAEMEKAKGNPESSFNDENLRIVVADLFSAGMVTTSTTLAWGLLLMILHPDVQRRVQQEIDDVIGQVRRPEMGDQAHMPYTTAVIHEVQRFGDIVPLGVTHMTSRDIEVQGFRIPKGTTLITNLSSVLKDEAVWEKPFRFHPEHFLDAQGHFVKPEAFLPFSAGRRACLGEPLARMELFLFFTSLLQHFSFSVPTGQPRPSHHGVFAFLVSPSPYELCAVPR
CYP1A2, sequence (P05177 whole entry): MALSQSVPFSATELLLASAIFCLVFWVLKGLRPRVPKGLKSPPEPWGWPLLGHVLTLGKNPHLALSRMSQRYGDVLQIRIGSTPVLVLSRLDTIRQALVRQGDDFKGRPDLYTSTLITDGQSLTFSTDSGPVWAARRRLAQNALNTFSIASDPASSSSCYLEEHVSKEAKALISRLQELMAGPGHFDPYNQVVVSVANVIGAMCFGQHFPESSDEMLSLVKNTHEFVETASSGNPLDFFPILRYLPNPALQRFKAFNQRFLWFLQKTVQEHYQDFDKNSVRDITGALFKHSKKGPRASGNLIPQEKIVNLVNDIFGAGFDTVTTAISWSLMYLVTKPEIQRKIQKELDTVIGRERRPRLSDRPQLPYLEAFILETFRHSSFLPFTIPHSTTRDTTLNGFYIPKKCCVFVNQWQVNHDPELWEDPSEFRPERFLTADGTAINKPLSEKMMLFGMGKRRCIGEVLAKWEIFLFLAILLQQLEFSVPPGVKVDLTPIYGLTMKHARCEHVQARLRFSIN

In the case of CC(C)N1CCN(c2ccc(C(=C(CCCO)c3ccccc3)c3ccc(O)cc3)cc2)CC1 [Compound 18a], the IC50 [1] is reported as > 10 µM, the “Functional Assay at 10 μM (% of control), Cpds” value ([2]; 10 μM, 24 hours, AD293) is reported as 4.83 % of control and the “Functional Assay, Cpds/Ref 5182” value ([2]; activity relative to reference compound GSK5182, 10 μM) is reported as 1.18. The “CYP inhibition (% of control) 1A2” value [3] was 88 % of control, the “CYP inhibition (% of control) 2C9” value [4] was 86.1 % of control and the “CYP inhibition (% of control) 2C19” value [5] was 81.2 % of control. The “CYP inhibition (% of control) 2D6” value [6] was 63.5 % of control, the “CYP inhibition (% of control) 3A4” value [7] was 66.4 % of control and the “Permeability Pampa” value [8] was 0.46 10^−6 cm/s. For the same compound, the AUCINF ([9]; IV, 1 mg/kg) was 0.49 μMh, the AUCall ([9]; IV, 1 mg/kg) was 0.42 μMh and the Vss ([9]; IV, 1 mg/kg) was 25.2 L/kg. For the same compound, the t1/2 ([9]; IV, 1 mg/kg) was 3.8 h, the AUCINF ([9]; PO, 10 mg/kg) was 1.29 μMh and the AUCall ([9]; PO, 10 mg/kg) was 0.81 μMh. The BA ([9]; PO, 10 mg/kg) was 21.4%, the Tmax ([9]; PO, 10 mg/kg) was 1.1 h and the Cmax ([9]; PO, 10 mg/kg, read-out: Cmax) was 0.21 µM. For the same compound, the “radioactive iodine uptake in CAL62 cells” value [10] was “significant increase”, the “ERRγ mRNA expression, decrease compared with vehicle treated group” value [11] was “about 16 times” and the “NIS mRNA expression, increase compared with vehicle-treated group” value [12] was “about 2 times”. For the same compound, the “ERRγ protein expression, decrease compared with vehicle treated group” value [13] was “about 2.8 times”, the “increase in membrane fully glycosylated NIS protein” value ([14]; biotinylated membrane protein) was 8.1 times and the “increase in membrane partially glycosylated NIS protein” value ([14]; biotinylated membrane protein) was 6.4 times. For the same compound, the “total NIS protein expression, change compared with vehicle treated group” value ([14]; text says significantly increased, then 'decreased by') was “about 1.9 times”, the “cytotoxic effect, alone (clone formation assay)” value [15] was “minimal cytotoxic effect” and the “radioactive uptake in CAL62 tumor, increase compared with vehicle group” value ([16]; 100 mpk orally daily for 6 days) was 4.4 times. The “radioactive uptake in CAL62 tumor, increase compared with vehicle group” value ([16]; 200 mpk orally daily for 6 days) was 16.2 times, the “tumor growth (optical imaging)” value [17] was “significant tumor growth inhibitory efficiency” and the IC50 [18] was 18.7 µM.
